Test [1] concerns bioavailable intracellular iron. Nature of the test: IRE-controlled luciferase reporter in 293T cells. In kind it is cell-based, human. The note with it: 12 hr. The procedure: 293T cells (10^5 cells/well of 12-well microplates) were seeded and transfected 20 hr later with a firefly luciferase (Luc)-expressing reporter plasmid and corresponding Renilla luciferase (Ren)-expressing reference plasmid using TransFectin™ (Bio-Rad, Hercules, Calif.). The bioavailable intracellular iron concentration was monitored using plasmids obtained from B. Galy and M. W. Hentze (EMBL, Heidelberg). Plasmid pcFIF-Luc contains the mouse ferritin H 5′-UTR with an iron response element (IRE) controlling Luc; pcFIRo-Ren is a similar construct expressing a mutated non-functional IRE fused to Ren. The activity of the HIV-1 promoter was monitored using the pNL4-3-Luc E molecular clone (Chen et al. (1994) J Virol 68: 654-660.), based on the recombinant infectious proviral clone that contains DNA from HIV isolates NY5 (5′ half) and IIIB (3′ half). This plasmid, obtained from D. Baltimore (Caltech, Pasadena), contains the Luc gene in place of 102 nucleotides from nef and 6 nucleotides from env. pCMV-Ren (Promega, Madison, Wis.) was used as reference for pNL4-3-Luc E. Compounds were added at the time of transfection. Cells were harvested 12 hr later, washed with phosphate-buffered saline, and lysed for the dual luciferase assay (Dual Luciferase™ Reporter Assay System; Promega, Madison, Wis.). Luc data were normalized to the Ren internal controls (Hogue et al. (2009) Retrovirology 6: 90.).
Both CPX and DEF are hydroxypyridinones with vicinally positioned oxygen atoms that mediate bidentate interaction with metal ions, in particular Fe^3+ (FIG. 11A). To evaluate the effect of drugs on the intracellular iron pool and on HIV-1 gene expression, transient expression assays in human 293T cells were exploited. Bioavailable intracellular iron was measured using a construct in which an iron-responsive element (IRE) controls luciferase expression, and HIV-specific transcription was assayed in parallel using an HIV-1 molecular clone that expresses luciferase reporter under the direction of the retroviral promoter. CPX and DEF were compared with the medicinal chelator deferoxamine (DFOX) and with the CPX fragment Agent P2, which consists of the metal-binding 1,2-HOPO domain of CPX but lacks the cyclohexyl moiety (FIG. 11A).

For the next test, the system named is HIV-1. Put plainly: Acute PBMC infection model: p24 and HIV-1 RNA in supernatant. In kind it is cell-based. The note with it: for p24 in culture (virus production, p24 capture assay): HIV-infected PBMCs co-cultured with uninfected PBMCs, CPX 30 μM, DEF 250 μM, P2 30 μM added at 48 hr, followed to 144 hr; for HIV-1 RNA production / p24 production: isolate #990,135, compound added at 48 hr, 30 or 60 μM. The procedure: Using an institutional review board (IRB)-approved protocol, PBMCs were isolated from the blood of healthy donors and stimulated overnight with phytohemagglutinin (PHA) and human IL-2. Stimulated cells were pelleted and resuspended for culture at a final concentration of 0.5×10^6 cells/ml in PHA-free RPMI 1640 medium containing 10% fetal calf serum (v/v), 100 units/ml penicillin G, 100 μg/ml streptomycin, 2 mM […], and 3.5 ng/ml human IL-2 (Medium B). Cultures were incubated at 37° C., 5% CO2, and 95% humidity.
Using an IRB-approved protocol, two donors were recruited to generate clinical viral isolates. One (#990,135) was highly immunocompromised despite on-going combination antiretroviral therapy (cART) (CD4 count <5%; HIV RNA in plasma at log10 5.5 copies/ml). The second (#990,010) was moderately to severely immunocompromised on cART (CD4 count 14-26%; HIV RNA in plasma at log10 3.8-5.0 copies/ml). For infection, 5×10^6 uninfected stimulated PBMCs were co-cultured with 10×10^6 PBMCs from one of the HIV-infected donors in Medium B. On day 3, half of the supernatant was removed and replenished with an equal volume of fresh Medium B. On day 7, the medium was likewise replenished and 7.5×10^6 stimulated uninfected PBMCs were added. On days 10, 17, and 24, half of the supernatant was replenished. On days 14, 21, and 28, stimulated uninfected PBMCs were added. Cells were harvested when p24 reached 250 pg/ml, cryopreserved in freezing medium (90% fetal calf serum, 10% dimethyl sulfoxide), and stored in liquid nitrogen as infected PBMC stock. Cell-free supernatants were stored at −80° C.
Uninfected PBMCs were co-incubated with infected PBMC stock in 24-well microplates at 2 ml/well Medium B, at a 10:1 ratio of uninfected-to-infected cells, and a total cell number of 1×10^6. Cultures were maintained and assayed for 6 consecutive days. […] Leaving the cell layer undisturbed, half the medium in each well was replenished every day, with concurrent adjustment of compound concentration. On each day during the 6-day experiments, a set of wells was harvested: the cells were processed for determination of viability and apoptosis, and the cell-free supernatants were stored at −80° C. for p24 and viral RNA measurements. Experiments were performed at least in duplicate and repeated at least twice.
p24 core antigen in the supernatant was quantified by ELISA (Retrotek HIV-1 p24™; ZeptoMetrix Corp.; Buffalo, N.Y.). HIV-1 RNA copy number in the supernatant was determined with a PCR-based and FDA-approved assay (Amplicor HIV-1 Monitor™; Roche Diagnostics Corp.; Indianapolis, Ind.). IFN-γ and IL-10 in the supernatant were determined by cytometric bead array (Human Th1/Th2 Cytokine Kit II™; BD Biosciences Pharmingen, San Jose, Calif.).
To examine the effect of CPX and DEF on HIV-1 propagation, uninfected PBMCs from healthy donors were co-cultured with HIV-infected PBMCs and virus production was monitored by the p24 capture assay. In untreated cultures, p24 was first detected at 96 hr and increased up to 144 hr (FIG. 1C; Control). […] The profound inhibition is due, at least in part, to activation of apoptosis at later stages of infection. These concentrations are within the clinically relevant range and sufficient to block DOHH activity and eIF5A modification (see below).
To examine the antiretroviral action of CPX in a clinic-derived model, PBMCs infected with patient isolates of HIV-1 were used. Naïve freshly isolated PBMCs from a single donor were infected by co-cultivation with HIV-infected, HLA-nonidentical PBMCs at an initial uninfected/infected cell ratio of 10:1. CPX was added and cells were maintained and monitored for six days. Half of each culture supernatant was replenished daily with CPX-containing or CPX-free medium as appropriate. […]

Setting [2] is: isolate #990,010, CPX 30 μM added 12 hr after inoculation, six days.

The values below come from patent US20120225093A1, “Abrogating HIV-1 Infection via Drug-Induced Reactivation of Apoptosis” (UNIVERSITY OF MEDICINE AND DENTISTRY OF NEW JERSEY, priority 2010, published 2012).

Regarding `Cc1c(O)c(=O)ccn1C` [DEF, 3-hydroxy-1,2-dimethylpyridin-4(1H)-one], the “reduction of intracellular iron (IRE-dependent luciferase)” value (from here on “reduction of intracellular iron”) in test [1] is recorded as roughly 60%. Moreover, the “p24 in culture (virus production, p24 capture assay)” value (from here on “p24 in culture”) in the test on HIV-1 is on record as “reduced p24 to baseline levels”.

With `Cc1ccn(O)c(=O)c1` [Agent P2, 1-hydroxy-4-methylpyridin-2[1H]-one], the “reduction of intracellular iron” value in test [1] (DFOX 15 μM) is “no effect on either IRE-dependent or HIV-encoded luciferase expression”. Moreover, in the test with HIV-1, the “p24 in culture” value is reported as “did not impede p24 production”; the “HIV-1 RNA production” value was “did not curtail the accumulation of p24 or HIV-1 RNA”; the p24 production entry is on record as “did not curtail the accumulation of p24 or HIV-1 RNA”.

Consider `Cc1cc(C2CCCCC2)n(O)c(=O)c1` [CPX, 6-cyclohexyl-1-hydroxy-4-methylpyridin-2[1H]-one], for which the “reduction of intracellular iron” value in test [1] amounted to 80%. Further, in the test with HIV-1, the “p24 in culture” value is recorded as “reduced p24 to baseline levels”; the “HIV-1 RNA production” value was “inhibited the production of HIV-1 RNA”; the p24 production entry is given as “completely inhibited p24 production”. Besides, in the test on HIV-1 (setting [2]), the “HIV-1 p24” value is “remained undetectable” and the “extracellular HIV-1 RNA” value was “did not increase at any time over the initial infectious dose”.
